According to ChEMBL document CHEMBL1201862, “PubChem BioAssay data set” (2004):
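Following 48 hours of exposure in 96-well plates, responses at five concentrations were used to interpolate endpoints linearly. At the GI50, growth is halved.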 Active and inactive are the calls of the source. Rule as the data show it: active = GI50 up to about 1.1 µM and inactive = higher.

What was measured:
Test in all cases: NCI anticancer screen, dose series, 48 h
MDA-MB-231 = tested on: MDA-MB-231
UACC-62 = tested on: UACC-62
RPMI-8226 = tested on: RPMI-8226
NCI-H226 = tested on: NCI-H226
UO-31 = tested on: UO-31
TK-10 = tested on: TK-10
DU-145 = tested on: DU-145
SN12C = tested on: SN12C
HOP-92 = tested on: HOP-92
NCI-H23 = tested on: NCI-H23
SK-MEL-5 = tested on: SK-MEL-5
U-251 = tested on: U-251
CCRF-CEM = tested on: CCRF-CEM
OVCAR-8 = tested on: OVCAR-8
BT-549 = tested on: BT-549
MDA-MB-435 = tested on: MDA-MB-435
786-0 = tested on: 786-0
SF-268 = tested on: SF-268
Hs-578T = tested on: Hs-578T
A549 = tested on: A549
HT-29 = tested on: HT-29
HCT-15 = tested on: HCT-15
UACC-257 = tested on: UACC-257
SR = tested on: SR
A498 = tested on: A498
T47D = tested on: T47D
OVCAR-4 = tested on: OVCAR-4
HOP-62 = tested on: HOP-62
IGROV-1 = tested on: IGROV-1
OVCAR-5 = tested on: OVCAR-5
COLO 205 = tested on: COLO 205
NCI-H522 = tested on: NCI-H522
RXF 393 = tested on: RXF 393
SF-295 = tested on: SF-295
HL-60 = tested on: HL-60
MDA-N = tested on: MDA-N
SNB-75 = tested on: SNB-75
HCT-116 = tested on: HCT-116
PC-3 = tested on: PC-3
K562 = tested on: K562
MCF7 = tested on: MCF7
SF-539 = tested on: SF-539
OVCAR-3 = tested on: OVCAR-3
CAKI-1 = tested on: CAKI-1
ACHN = tested on: ACHN
SK-MEL-2 = tested on: SK-MEL-2
LOX IMVI = tested on: LOX IMVI
Malme-3M = tested on: Malme-3M
NCI/ADR-RES = tested on: NCI/ADR-RES
SK-OV-3 = tested on: SK-OV-3
SK-MEL-28 = tested on: SK-MEL-28
EKVX = tested on: EKVX
M14 = tested on: M14
SNB-19 = tested on: SNB-19
MOLT-4 = tested on: MOLT-4
KM12 = tested on: KM12
NCI-H460 = tested on: NCI-H460
SW-620 = tested on: SW-620

C=C(Br)C/N=C/N(C)C
GI50 (MDA-MB-231): > 100 µM (inactive) | GI50 (UACC-62): > 100 µM (inactive) | GI50 (RPMI-8226): > 100 µM (inactive) | GI50 (NCI-H226): > 100 µM (inactive) | GI50 (UO-31): > 100 µM (inactive) | GI50 (TK-10): > 100 µM (inactive) | GI50 (DU-145): > 100 µM (inactive) | GI50 (SN12C): > 100 µM (inactive) | GI50 (HOP-92): > 100 µM (inactive) | GI50 (NCI-H23): > 100 µM (inactive) | GI50 (SK-MEL-5): > 100 µM (inactive) | GI50 (U-251): > 100 µM (inactive) | GI50 (CCRF-CEM): > 100 µM (inactive) | GI50 (OVCAR-8): > 100 µM (inactive) | GI50 (BT-549): > 100 µM (inactive) | GI50 (MDA-MB-435): > 100 µM (inactive) | GI50 (786-0): > 100 µM (inactive) | GI50 (SF-268): > 100 µM (inactive) | GI50 (Hs-578T): > 100 µM (inactive) | GI50 (A549): > 100 µM (inactive) | GI50 (HT-29): > 100 µM (inactive) | GI50 (HCT-15): > 100 µM | GI50 (UACC-257): > 100 µM (inactive) | GI50 (SR): > 100 µM (inactive) | GI50 (A498): > 100 µM (inactive) | GI50 (T47D): > 100 µM (inactive) | GI50 (OVCAR-4): > 100 µM (inactive) | GI50 (HOP-62): > 100 µM (inactive) | GI50 (IGROV-1): > 100 µM (inactive) | GI50 (OVCAR-5): > 100 µM (inactive) | GI50 (COLO 205): > 100 µM (inactive) | GI50 (NCI-H522): > 100 µM (inactive) | GI50 (RXF 393): > 100 µM (inactive) | GI50 (SF-295): > 100 µM (inactive) | GI50 (HL-60): > 100 µM (inactive) | GI50 (MDA-N): > 100 µM (inactive) | GI50 (SNB-75): > 100 µM (inactive) | GI50 (HCT-116): > 100 µM (inactive) | GI50 (PC-3): > 100 µM (inactive) | GI50 (K562): > 100 µM (inactive) | GI50 (MCF7): > 100 µM (inactive) | GI50 (SF-539): > 100 µM (inactive) | GI50 (OVCAR-3): > 100 µM (inactive) | GI50 (CAKI-1): > 100 µM (inactive) | GI50 (ACHN): > 100 µM (inactive) | GI50 (SK-MEL-2): > 100 µM (inactive) | GI50 (LOX IMVI): > 100 µM (inactive) | GI50 (Malme-3M): > 100 µM (inactive) | GI50 (NCI/ADR-RES): > 100 µM (inactive) | GI50 (SK-OV-3): > 100 µM (inactive) | GI50 (SK-MEL-28): > 100 µM (inactive) | GI50 (EKVX): > 100 µM (inactive) | GI50 (M14): > 100 µM (inactive) | GI50 (SNB-19): > 100 µM (inactive) | GI50 (MOLT-4): > 100 µM (inactive)

CC(=O)Nc1ccc(/C=C/[N+](=O)[O-])cc1
GI50 (MDA-MB-231): 1.81 µM (inactive) | GI50 (UACC-62): 2 µM (inactive) | GI50 (RPMI-8226): 1.66 µM (inactive) | GI50 (NCI-H226): 1.67 µM (inactive) | GI50 (UO-31): 2 µM (inactive) | GI50 (TK-10): 1.75 µM (inactive) | GI50 (DU-145): 5.11 µM (inactive) | GI50 (SN12C): 3.37 µM (inactive) | GI50 (KM12): 5.68 µM (inactive) | GI50 (HOP-92): 4.14 µM (inactive) | GI50 (NCI-H23): 3.09 µM (inactive) | GI50 (SK-MEL-5): 2.36 µM (inactive) | GI50 (U-251): 3.15 µM (inactive) | GI50 (CCRF-CEM): 2.33 µM (inactive) | GI50 (OVCAR-8): 6.07 µM (inactive) | GI50 (BT-549): 6.15 µM (inactive) | GI50 (MDA-MB-435): 2.82 µM (inactive) | GI50 (786-0): 2.61 µM (inactive) | GI50 (SF-268): 4.67 µM (inactive) | GI50 (Hs-578T): 4.85 µM (inactive) | GI50 (A549): 4.47 µM (inactive) | GI50 (HT-29): 1.85 µM (inactive) | GI50 (HCT-15): 2.33 µM | GI50 (UACC-257): 5.21 µM (inactive) | GI50 (NCI-H460): 7.21 µM (inactive) | GI50 (SR): 0.404 µM (active) | GI50 (A498): 5.19 µM (inactive) | GI50 (T47D): 4.1 µM (inactive) | GI50 (SW-620): 2.64 µM (inactive) | GI50 (OVCAR-4): 2.9 µM (inactive) | GI50 (HOP-62): 7.96 µM (inactive) | GI50 (IGROV-1): 2.37 µM (inactive) | GI50 (OVCAR-5): 2.58 µM (inactive) | GI50 (COLO 205): 2.53 µM (inactive) | GI50 (NCI-H522): 0.24 µM (active) | GI50 (RXF 393): 2.07 µM (inactive) | GI50 (SF-295): 5.71 µM (inactive) | GI50 (HL-60): 2.84 µM (inactive) | GI50 (MDA-N): 2.24 µM (inactive) | GI50 (SNB-75): 1.5 µM (inactive) | GI50 (HCT-116): 2.42 µM (inactive) | GI50 (PC-3): 5.71 µM (inactive) | GI50 (K562): 2 µM (inactive) | GI50 (MCF7): 2.79 µM (inactive) | GI50 (SF-539): 2.37 µM (inactive) | GI50 (OVCAR-3): 2.98 µM (inactive) | GI50 (CAKI-1): 0.573 µM (active) | GI50 (ACHN): 3.42 µM (inactive) | GI50 (SK-MEL-2): 9.66 µM (inactive) | GI50 (LOX IMVI): 1.71 µM (inactive) | GI50 (Malme-3M): 3.29 µM (inactive) | GI50 (NCI/ADR-RES): 8.09 µM (inactive) | GI50 (SK-OV-3): 8.93 µM (inactive) | GI50 (SK-MEL-28): 1.83 µM (inactive) | GI50 (EKVX): 3.13 µM (inactive) | GI50 (M14): 2.59 µM (inactive) | GI50 (SNB-19): 7.19 µM (inactive) | GI50 (MOLT-4): 1.96 µM (inactive)

COC(=O)[C@@H]1CC(C(CN)c2cn(C(=O)OC(C)(C)C)c3ccccc23)C(=O)N1C(=O)OC(C)(C)C (some centres undefined)
GI50 (MDA-MB-231): 22.4 µM (inactive) | GI50 (UACC-62): 15.1 µM (inactive) | GI50 (RPMI-8226): 10.6 µM (inactive) | GI50 (NCI-H226): 29.9 µM (inactive) | GI50 (UO-31): 32.4 µM (inactive) | GI50 (TK-10): 38.9 µM (inactive) | GI50 (DU-145): 44.2 µM (inactive) | GI50 (SN12C): 17.8 µM (inactive) | GI50 (KM12): 52.2 µM (inactive) | GI50 (NCI-H23): 35.8 µM (inactive) | GI50 (SK-MEL-5): 17.2 µM (inactive) | GI50 (U-251): 38.9 µM (inactive) | GI50 (CCRF-CEM): 14.4 µM (inactive) | GI50 (OVCAR-8): 21.7 µM (inactive) | GI50 (BT-549): 31.6 µM (inactive) | GI50 (MDA-MB-435): 21.5 µM (inactive) | GI50 (786-0): 31.3 µM (inactive) | GI50 (SF-268): 27.5 µM (inactive) | GI50 (Hs-578T): 28.2 µM (inactive) | GI50 (A549): 35.3 µM (inactive) | GI50 (HT-29): 24.8 µM (inactive) | GI50 (HCT-15): 28.1 µM | GI50 (UACC-257): 17.7 µM (inactive) | GI50 (NCI-H460): 23.6 µM (inactive) | GI50 (SR): 23.1 µM (inactive) | GI50 (A498): 20.1 µM (inactive) | GI50 (T47D): 44.2 µM (inactive) | GI50 (SW-620): 50.7 µM (inactive) | GI50 (OVCAR-4): 20.9 µM (inactive) | GI50 (HOP-62): 86.7 µM (inactive) | GI50 (IGROV-1): 17.9 µM (inactive) | GI50 (OVCAR-5): 27.2 µM (inactive) | GI50 (COLO 205): 17.3 µM (inactive) | GI50 (NCI-H522): 22.5 µM (inactive) | GI50 (RXF 393): 18 µM (inactive) | GI50 (SF-295): 21.6 µM (inactive) | GI50 (HL-60): 21.8 µM (inactive) | GI50 (MDA-N): 20 µM (inactive) | GI50 (SNB-75): 6.31 µM (inactive) | GI50 (HCT-116): 44.3 µM (inactive) | GI50 (PC-3): 18.4 µM (inactive) | GI50 (K562): 21.9 µM (inactive) | GI50 (MCF7): 23.8 µM (inactive) | GI50 (SF-539): 13.8 µM (inactive) | GI50 (OVCAR-3): 24.6 µM (inactive) | GI50 (CAKI-1): 29.2 µM (inactive) | GI50 (ACHN): 29.3 µM (inactive) | GI50 (SK-MEL-2): 22.4 µM (inactive) | GI50 (LOX IMVI): 14.8 µM (inactive) | GI50 (Malme-3M): 22.2 µM (inactive) | GI50 (NCI/ADR-RES): 17.2 µM (inactive) | GI50 (SK-MEL-28): 17.3 µM (inactive) | GI50 (EKVX): 19.4 µM (inactive) | GI50 (M14): 50.7 µM (inactive) | GI50 (SNB-19): 69.3 µM (inactive) | GI50 (MOLT-4): 17.1 µM (inactive)
